This is an account of results in publication PMC8536830 (Current Biology, 2021).

Molecules are shown by their SMILES.

What is called EC50 is the concentration that produces a half-maximal response.

Experiment [1] concerns the target LGC-54 (Caenorhabditis elegans, UniProt O17041). Description: Two-electrode voltage clamp, agonist-evoked currents in Xenopus oocytes expressing LGC-54. The experiment is classed as cell-based, C. elegans. The source says: We aimed to deorphanize C. elegans LGICs without known ligands, focusing on 5 genes in the putative monoamine-gated group: lgc-50; lgc-51; lgc-52; lgc-54; and lgc-56 (previously named ggr-3). Using heterologous overexpression in Xenopus oocytes and two-electrode voltage clamp recordings, we measured channel activity evoked by application of 11 monoamines and other neurotransmitters.
(§1) Defolliculated Xenopus laevis oocytes were obtained from EcoCyte Bioscience (Dortmund, Germany) and maintained in ND96 (in mM: 96 NaCl, 1 MgCl2, 5 HEPES, 1.8 CaCl2, 2 KCl) solution at 16°C for 3-5 days.
5'-capped cRNA was synthesized in vitro using the T3 mMessage mMachine transcription kit according to manufacturer’s protocol (Thermo Fischer Scientific, CA, USA). RNA was then purified using the GeneJET RNA purification kit (Thermo Fischer Scientific, CA, USA) prior to cRNA injection. Defolliculated Xenopus oocytes were placed individually into 96 well plates and injected with 50nL of 500ng/μL RNA using the Roboinject system (Multi Channel Systems GmbH, Reutlingen, Germany). When two constructs were injected the total RNA concentration remained 500ng/μL, with a 1:1 ratio of the components. Injected oocytes were incubated at 16°C in ND96 until the day of recording, typically between 3-5 days post injection.
Two-electrode voltage clamp recordings were carried out using the Robocyte2 recording system or a manual TEVC set up, using an OC-725D amplifier (Multi Channel Systems, Reutlingen, Germany) and paired with a custom-made recording chamber and agar bridges from reference and bath electrodes. Glass electrodes were pulled on a P-1000 Micropipette Puller (Sutter, Ca, USA) with a resistance ranging from 0.7-2 MΩ, pipettes, containing AgCl wires, were backfilled with a 3 M KCl solution for manual recordings and 1.5M KCl and 1 M acetic acid for Robocyte2 recordings. Oocytes were clamped at −60mV unless stated otherwise. Continuous recordings were taken during application of agonists and antagonists at 500 Hz. Data was recorded using WinWCP or RoboCyte2 control software, manual data was filtered at 10 Hz.
Dose response curves were calculated from the peak current during a 10 s agonist stimulation in ND96 solution, with a 60 s ND96 wash in between doses. Data was gathered over at least two occasions, using different batches of oocytes. Normalized dose response data was fitted to a nonlinear curve using a four parameters variable slope and the EC50 and Hill slope was calculated. All further recordings were carried out with the agonist at its EC50 concentration unless stated otherwise. Ion selectivity was determined using a voltage ramp protocol of 20mV/s ranging from −80mV to +60mV in the presence or absence of the primary agonist in three different solutions: ND96, NMDG (Na^+ free) and Na Gluconate (low Cl^-) solutions. Normalized ramp curves were fitted to a linear regression line and the x intercept was compared between solutions to calculate an average Erev from 4-5 oocytes. Antagonist dose response curves were calculated from the peak current during a 10 s agonist + antagonist stimulation in ND96 solution, with the agonist concentration remaining constant. Repeated agonist stimulus protocols were carried out by measuring the peak current during a 10 s agonist stimulation at three wash intervals, 10 s, 30 s and 60 s. Kinetic measurements were calculated from a 60 s agonist perfusion. Python scripts for TEVC analysis can be found at on GitHub at hiris25/TEVC-analysis-scripts and on Zenodo https://doi.org/10.5281/zenodo.5095181.
Dose response and antagonist response curves were generated using custom-built python scripts (key resources table), which combined data from multiple recordings and normalized data by calculating I/Imax for each oocyte.
For orientation: In two-electrode clamp one electrode senses voltage and the other passes current.

Experiment [2] has as its target T1, LGC-50:MOD-1(363-397) (Caenorhabditis elegans, UniProt P41849).
T1 sequence (P41849 with tags, fused parts or gaps): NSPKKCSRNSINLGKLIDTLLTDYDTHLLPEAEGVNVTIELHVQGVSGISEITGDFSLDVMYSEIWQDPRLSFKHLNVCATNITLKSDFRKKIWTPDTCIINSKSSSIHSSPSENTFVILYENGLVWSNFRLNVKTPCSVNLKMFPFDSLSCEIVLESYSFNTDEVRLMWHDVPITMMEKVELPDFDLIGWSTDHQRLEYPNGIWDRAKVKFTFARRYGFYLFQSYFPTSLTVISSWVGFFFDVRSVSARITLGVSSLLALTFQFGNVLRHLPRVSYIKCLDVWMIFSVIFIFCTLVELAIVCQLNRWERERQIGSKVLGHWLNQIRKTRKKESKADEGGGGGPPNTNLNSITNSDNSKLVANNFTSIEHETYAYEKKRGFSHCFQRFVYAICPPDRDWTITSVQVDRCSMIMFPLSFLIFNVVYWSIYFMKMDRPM
T1 sequence (Q9GQ00 363-397 partner): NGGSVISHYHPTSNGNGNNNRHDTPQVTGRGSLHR
Description: Two-electrode voltage clamp, 5-HT evoked dose response, LGC-50:MOD-1(363-397) chimera. The experiment is classed as cell-based, C. elegans. The conditions noted are these: Xenopus oocytes, TEVC. As for the experimental part:
as §1
5'-capped cRNA was synthesized in vitro using the T3 mMessage mMachine transcription kit according to manufacturer’s protocol (Thermo Fischer Scientific, CA, USA). RNA was then purified using the GeneJET RNA purification kit (Thermo Fischer Scientific, CA, USA) prior to cRNA injection. Defolliculated Xenopus oocytes were placed individually into 96 well plates and injected with 50nL of 500ng/μL RNA using the Roboinject system (Multi Channel Systems GmbH, Reutlingen, Germany). […]
Two-electrode voltage clamp recordings were carried out using the Robocyte2 recording system or a manual TEVC set up, using an OC-725D amplifier (Multi Channel Systems, Reutlingen, Germany) and paired with a custom-made recording chamber and agar bridges from reference and bath electrodes. […] Data was recorded using WinWCP or RoboCyte2 control software, manual data was filtered at 10 Hz.
Dose response curves were calculated from the peak current during a 10 s agonist stimulation in ND96 solution, with a 60 s ND96 wash in between doses. […] Normalized dose response data was fitted to a nonlinear curve using a four parameters variable slope and the EC50 and Hill slope was calculated. […]

LGC-54, sequence (O17041 entry or part of it): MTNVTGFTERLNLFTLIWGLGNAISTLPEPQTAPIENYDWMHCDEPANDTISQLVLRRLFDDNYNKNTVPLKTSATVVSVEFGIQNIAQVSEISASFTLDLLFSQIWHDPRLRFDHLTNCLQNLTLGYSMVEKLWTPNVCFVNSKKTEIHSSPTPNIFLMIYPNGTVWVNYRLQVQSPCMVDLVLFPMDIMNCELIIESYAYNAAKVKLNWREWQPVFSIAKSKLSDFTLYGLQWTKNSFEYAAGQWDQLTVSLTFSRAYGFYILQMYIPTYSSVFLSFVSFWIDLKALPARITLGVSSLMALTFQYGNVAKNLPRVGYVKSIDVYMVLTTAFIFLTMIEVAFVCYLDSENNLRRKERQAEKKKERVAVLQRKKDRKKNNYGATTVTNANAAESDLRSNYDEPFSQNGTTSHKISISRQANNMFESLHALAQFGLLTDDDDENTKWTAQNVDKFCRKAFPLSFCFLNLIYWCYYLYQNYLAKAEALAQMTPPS

On to `NCCc1c[nH]c2ccc(O)cc12` [5-HT, serotonin], for which the EC50 came to 94 µM in experiment [1] (Xenopus oocytes, TEVC, current normalized to Imax, Hill equation with variable slope, read-out: EC50, agonist-evoked dose response, LGC-54) and 980 nM in experiment [2]. For the same molecule, in experiment [1] (ligands screened at 100 μM, oocytes clamped at −60 mV), the “Channel activation in ligand screen, LGC-54” value is given as “responded to 5-HT at high concentrations”.
